{
  "source": "patent US20260364214A1",
  "about": "“MULTIVALENT FIBROBLAST ACTIVATION PROTEIN LIGANDS FOR TARGETED DELIVERY APPLICATIONS” (Philochem AG, priority 2022, published 2026)",
  "tested_on": "SK-RC-52.hFAP tumors",
  "test": "Quantitative biodistribution in SK-RC-52.hFAP tumor bearing mice",
  "format": "in vivo, mouse (female athymic Balb/c AnNRj-Foxn1)",
  "details": "i.v. 250 nmol/kg, 50 MBq/kg",
  "procedure": "SK-RC-52.hFAP were grown to 80% confluence in RPMI-1640 with 10% fetal bovine serum (FBS) and 1% antibiotic-antimycotic and detached with Trypsin-EDTA (ethylenediaminetetraacetic acid) 0.05%. Tumor cells were resuspended in Hanks' Balanced Salt Solution medium. Aliquots of 5 million cells (100 μL of suspension) were injected subcutaneously in the right flank of female athymic Balb/c AnNRj-Foxn1 mice (6 to 8 wk of age).\nRadiolabeling of ESV6-DOTAGA, Bi-ESV6-DOTAGA, Tri-ESV6-DOTAGA, Tetra-ESV6-DOTAGA, Hexa-ESV6-DOTAGA, Octa-ESV6-DOTAGA and FAP-2286 with lutetium-177 (a therapeutic radionuclide) was performed with different specific activities for three different studies (biodistribution, therapy and dose optimization).\nPrior to the biodistribution study, precursors (100 nmol) were dissolved in 100 μL of milliQ water and diluted with 200 μL of sodium acetate (1 M in water, pH=4.5). 20 MBq of ^177Lu solution were added and the mixture was heated at 90 °C for 10 minutes, followed by dilution with […] of PBS to achieve final volume of 2 mL (20 doses of 100 μL each).\nESV6-DOTAGA, Bi-ESV6-DOTAGA, Tri-ESV6-DOTAGA, Tetra-ESV6-DOTAGA, Hexa-ESV6-DOTAGA, Octa-ESV6-DOTAGA and FAP-2286 were radiolabeled with ^177Lu as described above. Tumors were allowed to grow to an average volume of 300 mm^3. Mice were randomized and injected intravenously with radiolabeled preparations of ^177Lu-ESV6, ^177Lu-Bi-ESV6, ^177Lu-Tri-ESV6, Tetra-ESV6-DOTAGA, Hexa-ESV6-DOTAGA, Octa-ESV6-DOTAGA or ^177Lu-FAP-2286 (250 nmol/kg; 50 MBq/kg). Mice were euthanized at different time-points after the intravenous injection by CO2 asphyxiation. Tumors, organs, and blood were collected, weighted, and radioactivity was measured with a Packard Cobra Gamma Counter. Values are expressed as percent ID/g±SD [FIG. 4]. The % ID/g in the tumors was corrected considering the SK-RC-52.hFAP tumor growth rate.\nQuantitative in vivo biodistribution of ^177Lu-ESV6-DOTAGA, ^177Lu-Bi-ESV6-DOTAGA, ^177Lu-Tri-ESV6-DOTAGA, ^177Lu-FAP-2286, Tetra-ESV6-DOTAGA, Hexa-ESV6-DOTAGA and Octa-ESV6-DOTAGA at different time points after intravenous administration (250 nmol/kg, 50 MBq/kg) in mice bearing SK-RC-52.hFAP tumors, are shown in Tables 1 to 4 and 10 to 12. Data are reported as % ID/g±standard deviation.\nTumor-to-organ ratios of ^177Lu-ESV6-DOTAGA, ^177Lu-Bi-ESV6-DOTAGA, ^177Lu-Tri-ESV6-DOTAGA, ^177Lu-FAP-2286, Tetra-ESV6-DOTAGA, Hexa-ESV6-DOTAGA and Octa-ESV6-DOTAGA, at different time points after intravenous administration (250 nmol/kg, 50 MBq/kg) in mice bearing SK-RC-52.hFAP tumors, are shown in Tables 5 to 8 and 13 to 15. Avg.=average; Std.d=standard deviation.",
  "data": [
    {"smiles": "N#C[C@@H]1CC(F)(F)CN1C(=O)CNC(=O)c1ccnc2c(NC(=O)CCC(=O)NCCNC(=O)CCOCC(COCCC(=O)NCCNC(=O)CCC(=O)Nc3cccc4c(C(=O)NCC(=O)N5CC(F)(F)C[C@H]5C#N)ccnc34)(COCCC(=O)NCCNC(=O)CCC(=O)Nc3cccc4c(C(=O)NCC(=O)N5CC(F)(F)C[C@H]5C#N)ccnc34)NC(=O)CCOCC(COCCC(=O)NC(COCCC(=O)NCCNC(=O)CCC(=O)Nc3cccc4c(C(=O)NCC(=O)N5CC(F)(F)C[C@H]5C#N)ccnc34)(COCCC(=O)NCCNC(=O)CCC(=O)Nc3cccc4c(C(=O)NCC(=O)N5CC(F)(F)C[C@H]5C#N)ccnc34)COCCC(=O)NCCNC(=O)CCC(=O)Nc3cccc4c(C(=O)NCC(=O)N5CC(F)(F)C[C@H]5C#N)ccnc34)NC(=O)CCC(C(=O)O)N3CCN(CC(=O)[O-])CCN(CC(=O)[O-])CCN(CC(=O)[O-])CC3)cccc12.[177Lu+3]", "note": "(stereo partly drawn) [^177Lu-Hexa-ESV6-DOTAGA]", "values": [
      {"measurement": "Tumor to organs ratio, Blood", "setting": "6 h", "result": 7.84},
      {"measurement": "Injected dose per gram, Blood", "setting": "6 h post injection", "result": 0.36, "unit": "% ID/g"},
      {"measurement": "Tumor to organs ratio, Blood", "setting": "24 h", "result": 17.77},
      {"measurement": "Injected dose per gram, Blood", "setting": "24 h post injection", "result": 0.10, "unit": "% ID/g"},
      {"measurement": "Tumor to organs ratio, Blood", "setting": "96 h", "result": 85.06},
      {"measurement": "Injected dose per gram, Blood", "setting": "96 h post injection", "result": 0.02, "unit": "% ID/g"},
      {"measurement": "Tumor to organs ratio, Heart", "setting": "6 h", "result": 8.50},
      {"measurement": "Injected dose per gram, Heart", "setting": "6 h post injection", "result": 0.33, "unit": "% ID/g"},
      {"measurement": "Tumor to organs ratio, Heart", "setting": "24 h", "result": 7.90},
      {"measurement": "Injected dose per gram, Heart", "setting": "24 h post injection", "result": 0.23, "unit": "% ID/g"},
      {"measurement": "Tumor to organs ratio, Heart", "setting": "96 h", "result": 8.99},
      {"measurement": "Injected dose per gram, Heart", "setting": "96 h post injection", "result": 0.16, "unit": "% ID/g"},
      {"measurement": "Tumor to organs ratio, Intestine", "setting": "6 h", "result": 13.86},
      {"measurement": "Injected dose per gram, Intestine", "setting": "6 h post injection", "result": 0.24, "unit": "% ID/g"},
      {"measurement": "Tumor to organs ratio, Intestine", "setting": "24 h", "result": 20.76},
      {"measurement": "Injected dose per gram, Intestine", "setting": "24 h post injection", "result": 0.10, "unit": "% ID/g"},
      {"measurement": "Tumor to organs ratio, Intestine", "setting": "96 h", "result": 20.47},
      {"measurement": "Injected dose per gram, Intestine", "setting": "96 h post injection", "result": 0.07, "unit": "% ID/g"},
      {"measurement": "Tumor to organs ratio, Kidney", "setting": "6 h", "result": 5.24},
      {"measurement": "Injected dose per gram, Kidney", "setting": "6 h post injection", "result": 0.53, "unit": "% ID/g"},
      {"measurement": "Tumor to organs ratio, Kidney", "setting": "24 h", "result": 3.37},
      {"measurement": "Injected dose per gram, Kidney", "setting": "24 h post injection", "result": 0.57, "unit": "% ID/g"},
      {"measurement": "Tumor to organs ratio, Kidney", "setting": "96 h", "result": 0.99},
      {"measurement": "Injected dose per gram, Kidney", "setting": "96 h post injection", "result": 1.37, "unit": "% ID/g"},
      {"measurement": "Tumor to organs ratio, Liver", "setting": "6 h", "result": 0.04},
      {"measurement": "Injected dose per gram, Liver", "setting": "6 h post injection", "result": 62.54, "unit": "% ID/g"},
      {"measurement": "Tumor to organs ratio, Liver", "setting": "24 h", "result": 0.03},
      {"measurement": "Injected dose per gram, Liver", "setting": "24 h post injection", "result": 53.45, "unit": "% ID/g"},
      {"measurement": "Tumor to organs ratio, Liver", "setting": "96 h", "result": 0.03},
      {"measurement": "Injected dose per gram, Liver", "setting": "96 h post injection", "result": 49.80, "unit": "% ID/g"},
      {"measurement": "Tumor to organs ratio, Lung", "setting": "6 h", "result": 0.43},
      {"measurement": "Injected dose per gram, Lung", "setting": "6 h post injection", "result": 6.91, "unit": "% ID/g"},
      {"measurement": "Tumor to organs ratio, Lung", "setting": "24 h", "result": 0.34},
      {"measurement": "Injected dose per gram, Lung", "setting": "24 h post injection", "result": 5.33, "unit": "% ID/g"},
      {"measurement": "Tumor to organs ratio, Lung", "setting": "96 h", "result": 1.10},
      {"measurement": "Injected dose per gram, Lung", "setting": "96 h post injection", "result": 1.38, "unit": "% ID/g"},
      {"measurement": "Tumor to organs ratio, Muscle", "setting": "6 h", "result": 9.52},
      {"measurement": "Injected dose per gram, Muscle", "setting": "6 h post injection", "result": 0.66, "unit": "% ID/g"},
      {"measurement": "Tumor to organs ratio, Muscle", "setting": "24 h", "result": 13.70},
      {"measurement": "Injected dose per gram, Muscle", "setting": "24 h post injection", "result": 0.14, "unit": "% ID/g"},
      {"measurement": "Tumor to organs ratio, Muscle", "setting": "96 h", "result": 35.84},
      {"measurement": "Injected dose per gram, Muscle", "setting": "96 h post injection", "result": 0.05, "unit": "% ID/g"},
      {"measurement": "Tumor to organs ratio, Spleen", "setting": "6 h", "result": 0.07},
      {"measurement": "Injected dose per gram, Spleen", "setting": "6 h post injection", "result": 41.26, "unit": "% ID/g"},
      {"measurement": "Tumor to organs ratio, Spleen", "setting": "24 h", "result": 0.04},
      {"measurement": "Injected dose per gram, Spleen", "setting": "24 h post injection", "result": 47.44, "unit": "% ID/g"},
      {"measurement": "Tumor to organs ratio, Spleen", "setting": "96 h", "result": 0.04},
      {"measurement": "Injected dose per gram, Spleen", "setting": "96 h post injection", "result": 38.61, "unit": "% ID/g"},
      {"measurement": "Tumor to organs ratio, Tail", "setting": "6 h", "result": 4.76},
      {"measurement": "Injected dose per gram, Tail", "setting": "6 h post injection", "result": 0.70, "unit": "% ID/g"},
      {"measurement": "Tumor to organs ratio, Tail", "setting": "24 h", "result": 1.39},
      {"measurement": "Injected dose per gram, Tail", "setting": "24 h post injection", "result": 1.65, "unit": "% ID/g"},
      {"measurement": "Tumor to organs ratio, Tail", "setting": "96 h", "result": 2.03},
      {"measurement": "Injected dose per gram, Tail", "setting": "96 h post injection", "result": 1.02, "unit": "% ID/g"},
      {"measurement": "Injected dose per gram, Tumor", "setting": "6 h post injection", "result": 2.77, "unit": "% ID/g"},
      {"measurement": "Injected dose per gram, Tumor", "setting": "24 h post injection", "result": 1.80, "unit": "% ID/g"},
      {"measurement": "Injected dose per gram, Tumor", "setting": "96 h post injection", "result": 1.36, "unit": "% ID/g"}
    ]}
  ]
}
